Data as given in PubChem BioAssay (NCI).
Several values for one entry are separate records, joined by “and”; a condition that tells them apart may be missing. Equal values may be shown once.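 Method: 48-hour compound exposure of cells in 96-well plates, five concentrations, linear interpolation of endpoints. GI50 = concentration required for 50% inhibition of growth. TGI denotes the concentration required for complete inhibition of growth.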

tested on: MDA-MB-468 breast; assay: inhibition of tumour cell growth, NCI panel, 48 h

SMILES | GI50 | TGI
CCCCCCCCCCCCCCCCCCn1cc[n+](C)c1 | 0.215 µM | 1.64 µM
CCOC(=O)Oc1cc2c(c(OC)c1OC)-c1ccc(OC)c(=O)cc1C(NC(C)=O)CC2 (centres undefined) | < 0.01 µM | > 100 µM
COC(=O)[C@H](Cc1cnc[nH]1)NC(=O)[C@@H](NC(=O)Nc1cc(C(F)(F)F)cc(C(F)(F)F)c1)C(C)C | 11.1 µM | 25.6 µM
COc1cc(Nc2ncc(-c3ccccc3)o2)cc(OC)c1 | 7.94 µM | > 25 µM
O=C(N/N=C\c1ccc(N(CCCl)CCCl)cc1[N+](=O)[O-])c1cccnc1 | > 100 µM | > 100 µM
Cc1cccc2nc3ccccc3c(Nc3ccc(NS(C)(=O)=O)cc3)c12 | 8.53 µM | 26.3 µM
COc1cccc(CC(C)=C(c2ccc(OCCN3CCCCC3)cc2)c2ccc(OCCN3CCCCC3)cc2)c1 | 0.641 µM | 2.71 µM
COC12C=C/C(=C(/C(=O)OCc3ccccn3)C(=O)CCCCCCCCC3(OC)C=C/C(=C(/C(=O)OCc4ccccn4)C(=O)CCCCCCCC1)O3)O2 | 0.314 µM | 1.15 µM
COc1cc(/C=C/C(=O)/C=C/c2ccc(-n3ccnc3C)cc2)ccc1O | 2.06 µM | 4.72 µM
COc1ccc2c(c1OC)CO[C@@H]2[C@H]1c2c(cc3c(c2OC)OCO3)CCN1S(=O)(=O)c1cn(C)cn1 | 0.324 µM | 5.93 µM
CC1=C2[C@@H](CC1)[C@]1(C)O[C@@](C(C)C)(C[C@H]1OC(=O)CO)[C@H]2OC(=O)C1CC1c1ccccc1 (some centres undefined) | 13.2 µM | 29.5 µM
CCC(C)[C@H](NC(=O)Nc1cc(C(F)(F)F)cc(C(F)(F)F)c1)C(=O)N[C@@H](Cc1cn(C)cn1)C(=O)OC (some centres undefined) | 0.476 µM | 0.971 µM
CNC(=O)c1c(NC(=O)c2ccc(C(C)(C)C)cc2)sc2c1CCC(=O)C2 | 0.411 µM | 2.07 µM
CNC(=O)c1c(NC(=O)c2ccc(C(C)(C)C)cc2)sc2c(CN(C)C)c(O)ccc12 | 1.67 µM | 3.36 µM
CC1=C(c2ccccc2)C(O)(c2ccccc2)C(C)C1=O (centres undefined) | 4.28 µM | 40.3 µM
Cc1ccc(/C=N/Nc2nc(Nc3ccccc3)nc(-n3nc(C)cc3C)n2)cc1 | 3.63 µM | 17.1 µM
Nc1ccc(C2=CC(c3ccc(Cl)cc3)N3C=CSC3=N2)cc1 (centres undefined) | 1.9 µM | 4.29 µM
CC1C(C)N(C(=O)CCl)c2ccccc2N1C(=O)CCl (centres undefined) | 0.296 µM | 1.21 µM
Nc1nc([Se])c2ncn(C3OC(CO)C(O)C3O)c2n1 (centres undefined) | 50.2 µM | > 100 µM
COc1ccc2c(c1)[nH]c(=O)c1c3cccc(F)c3cn21 | 0.187 µM | 0.487 µM

SMILES | GI50 | TGI
COc1ccc(CN2c3ccccc3Sc3ccccc32)c(C(F)(F)F)c1 | 0.275 µM | 13.6 µM
CCC(C)Nc1ccc(N)cc1 (centres undefined) | 2.05 µM | 6.51 µM
COc1cc(/C=N/Nc2ncnc3c2cnn3-c2ccccc2)ccc1O | 4.93 µM | > 25 µM
COc1ccc2c(c1)c(-c1nc(-c3c[nH]c4ccncc34)cs1)cn2C | 0.442 µM | 1.85 µM
CC(C)(C)c1ccc(Oc2ccc(N)cn2)cc1 | 28.3 µM | > 100 µM
CC(N)(Cc1c[nH]c2cccc(F)c12)C(=O)O (centres undefined) | > 1000 µM | > 1000 µM
COc1ncc(Nc2ncc([C@@H](C)N3CCN(S(C)(=O)=O)CC3)cc2-c2nc(C)nc(N)n2)cc1F | < 0.0148 µM | 0.16 µM
CC1(C)CNc2cc(NC(=O)c3cccnc3NCc3ccncc3)ccc21 | 12.7 µM | 66.2 µM
CC1=C(SCCC(=O)OC(C[Se]C2=C(C)C(=O)c3ccccc3C2=O)C(=O)NCCCCCC(=O)OCc2ccccc2)C(=O)c2ccccc2C1=O (centres undefined) | 3 µM | 8.54 µM
O=C(Nc1ccccc1)Nc1ccc2cc3ccc(NC(=O)Nc4ccccc4)cc3nc2c1 | 0.579 µM | 1.92 µM
CCc1ccc(CCC(=O)Nc2ncc(Cc3ccc(Cl)cc3)s2)o1 | 0.342 µM | –
CNC(=O)c1cc(Oc2ccc(NC(=O)Nc3ccc(Cl)c(C(F)(F)F)c3)c(F)c2)ccn1 | 2.06 µM and 1.67 µM | 5.58 µM and 7.93 µM
Cc1ccccc1NC(=O)c1sc2nc(C)c(C(=O)/C=C/c3ccccc3)cc2c1N | 0.927 µM | 1.82 µM
COc1cc(OC)cc(-c2n/c(=C\c3c(O)[nH]c4ccc(OC)cc34)cc3c2=Nc2ccccc2-3)c1 | 12.1 µM | 29.8 µM
CCN(Cc1ccccc1)C1CCN(Cc2cc(Br)ccc2O)CC1 | 15.1 µM | 40.8 µM
COc1ccc(C/C(=C(\C)c2ccc(OCCN3CCCC3)cc2)c2ccc(OCCN3CCCC3)cc2)cc1 | 1.62 µM | 3.14 µM
NCCCC[C@@H]1NC(=O)[C@H](CC(=O)O)NC(=O)CNC(=O)[C@H](CCCN=C(N)N)NC(=O)[C@@H](N)CSSC[C@@H](C(=O)O)NC(=O)[C@H](CC(=O)O)NC(=O)[C@@H]2CCCN2C(=O)CNC1=O | > 100 µM | > 100 µM
COCc1c(-c2cc3cc(C)cc(OC)c3s2)c2c(N)ncnn2c1CN1CCNC(=O)C1 | 1.76 µM | 7.46 µM
CCN(CC)CCCNc1cc(OC)cc2nc3cc(Cl)ccc3nc12 | 1.15 µM | 2.67 µM
NC(=O)c1cc([N+](=O)[O-])c(Cl)c([N+](=O)[O-])c1Cl | 0.188 µM | 0.436 µM
